# According to publication PMC8875629, “Novel Antioxidant Peptides from Crassostrea Hongkongensis Improve Photo-Oxidation in UV-Induced HaCaT Cells” (Marine Drugs, 2022):
# What was measured:
# [1] = test system: UV-irradiated HaCaT cells; assay: Cell viability of UV-irradiated HaCaT cells after pretreatment, CCK-8; assay type: cell-based, human; conditions: pretreatment one day, UV-irradiation
# Method: For UV-irradiation (Combined UVA and UVB irradiation), HaCaT cells were cultured in 6-well plates (3 × 10^5 cells/well), 12-well plates (1 × 10^5 cells/well), and 96-well plates (1 × 10^4 cells/well) for one day. When cells sufficiently adhered, the medium was removed and cells were washed twice with PBS. Each well contained a thin layer of PBS to keep cell surfaces from drying. The lids of culture plates were opened, and the plates were placed under a UV lamp emitting both UVA (365 nm) and UVB (310 nm) light for 8 min. Irradiation dose was calculated as: Dose (mJ/cm^2) = Exposure time (s) × Intensity (mW/cm^2). After irradiation, cells were washed with warm PBS and incubated with serum-free DMEM for one day or longer.
# [2] = test system: HaCaT cells; assay: Cytotoxicity in HaCaT cells, CCK-8; conditions: serum-free medium
# Method: Cells were cultured in Dulbecco’s modified Eagle’s medium (DMEM; Gibco, Thermo Fisher Scientific, Waltham, MA, USA) supplemented with 10% heat-inactivated fetal bovine serum (FBS; Gibco) and 1% antibiotics [100 U/mL penicillin and 100 µg/mL streptomycin (Invitrogen, Thermo Fisher Scientific, Waltham, MA, USA)] at 37 °C in a humidified 5% CO2 incubator (SANYO, Ōsaka, JPN). HaCaT cells were subcultured when they reached 80% to 90% confluence. Cells were cultured for 12 h in 10% heat-inactivated FBS before being used for experiments. When required, HaCaT cells were treated with OPs in a serum-free medium and incubated under the same conditions (Figure 15B).
# Cell viability was evaluated by measuring the dehydrogenase-catalyzed formation of a yellow dye in living cells. In the presence of electronic coupling reagents, WST-8 (tetrazolium salt 2-(2-methoxy-4-nitrophenyl)-3-(4-nitrophenyl)-5-(2,4-disulfophenyl) -2H-tetrazolium, monosodium salt (CCK-8)) is reduced to formazan, a yellow dye, by dehydrogenase.
# Cells were seeded on 96-well plates at a density of 1 × 10^4 cells/well; viability was measured 24 h after UV-irradiation. […] Absorbance was measured using a microplate reader (Varioskan Flash; Thermo, Waltham, MA, USA) at λ = 450 nm. […] Cytotoxicity and optimal concentrations of OPs were determined using similar steps.
# [3] = test system: MMP-1; assay: MMP-1 expression in UV-irradiated HaCaT cells, ELISA; assay type: cell-based, human
# Method: PINP and MMP-1 levels were measured in cell culture media using enzyme-linked immunoassay (ELISA) kits (Yutong Biological Technology Co., Changzhou, China). All experiments were conducted according to the manufacturer’s instructions. Purified Human MMP-1 antibody is coated in microtiter plate wells, making solid-phase antibodies. Then add the sample to the wells, a Combined antibody which With HRP labeled, become antibody-antigen-enzyme-antibody complex, after washing Completely, Add TMB substrate solution, TMB substrate becomes blue color At HRP enzyme-catalyzed, the reaction is terminated by the addition of a sulphuric acid solution and the color change is measured spectrophotometrically at a wavelength of 450 nm. The concentration of MMP-1 in the samples is then determined by comparing the O.D. of the samples to the standard curve. The content of PINP was determined on the same principles.
Substance,Effect on survival of UV-irradiated HaCaT cells [1],Concentration without cytotoxicity [2],Abnormal upregulation of MMP-1 (synthetic peptides) [3]
"TALAIDAIINQK [Peptide III, synthesized peptide identified in OP5-3]",beneficial effects,–,–
LICIVPK [Peptide VI],beneficial effects,0 to 600000 ng/mL,–
"AIVAEVNEAAK [Peptide I, synthesized peptide identified in OP5-3]",–,–,most prominent effect
GVAMNPVDHPHGGGEGR [Peptide V],–,0 to 200000 ng/mL,–
